Laboratory results from patent US6762207B1, “(E)-styryl sulfone anticancer agents” (priority 1999, dated 2004).

Legend:
Type in all cases: cell-based
Parameters in all cases: dose or concentration left out as unconfirmed
Details in all cases: 96 hours
[1] = test system: colorectal carcinoma cell line DLD-1; experiment: Trypan blue exclusion viability assay, DLD-1
Procedure: (§1) MCF-7 is estrogen-responsive, while BT-20 is an estrogen-unresponsive cell line. NIH/3T3 and HFL are normal murine and human fibroblasts, respectively. MCF-7, BT-20, DLD-1 and H157 were grown in Dulbecco's modified Eagle's medium (DMEM) containing 10% fetal bovine serum supplemented with penicillin and streptomycin. DU145 was cultured in RPMI with 10% fetal bovine serum containing penicillin and streptomycin. […] All cell cultures were maintained at 37° C. in a humidified atmosphere of 5% CO2. Cells were treated with test compound at 2.5 mM concentration and cell viability was determined after 96 hours by the Trypan blue exclusion method.

[2] = test system: non-small cell lung carcinoma cell line H157; experiment: Trypan blue exclusion viability assay, H157
Procedure: as §1

[3] = test system: prostate tumor cell line DU-145; experiment: Trypan blue exclusion viability assay, DU145
Procedure: as §1

[4] = test system: breast tumor cell line BT-20; experiment: Trypan blue exclusion viability assay, BT20
Procedure: as §1

[5] = test system: breast tumor cell line MCF-7; experiment: Trypan blue exclusion viability assay, MCF-7
Procedure: as §1

| Compound | Cell death, DLD-1 [1] | Cell death, H157 [2] | Cell death, DU145 [3] | Cell death, BT20 [4] | Cell death, MCF-7 [5] |
| --- | --- | --- | --- | --- | --- |
| O=S(=O)(/C=C/c1ccc(F)cc1)Cc1ccc(C(F)(F)F)cc1 [Example 1, (E)-4-Fluorostyryl-4-trifluoromethylbenzylsulfone] | +++ (40-50% = +++) | ++ (10-15% = ++) | +++ (40-50% = +++) | +++ (40-50% = +++) | +++ (40-50% = +++) |
| O=S(=O)(/C=C/c1ccc(Cl)cc1)Cc1ccc(C(F)(F)F)cc1 [Example 2, (E)-4-Chlorostyryl-4-trifluoromethylbenzylsulfone] | ++ (10-15% = ++) |  | ++ (10-15% = ++) | ++ (10-15% = ++) | ++ (10-15% = ++) |
| O=S(=O)(/C=C/c1ccc(F)cc1)Cc1ccc(Cl)cc1Cl [Example 4, (E)-4-Fluorostyryl-2,4-dichlorobenzylsulfone] |  | + (5-10%: = +) | ++ (10-15% = ++) | ++ (10-15% = ++) | ++ (10-15% = ++) |
| O=S(=O)(/C=C/c1ccc(Cl)cc1)Cc1ccc(Cl)cc1Cl [Example 5, (E)-4-Chlorostyryl-2,4-dichlorobenzylsulfone] | ++ (10-15% = ++) | ++ (10-15% = ++) | + (5-10%: = +) |  | +++ (40-50% = +++) |
| O=S(=O)(/C=C/c1ccc(F)cc1)Cc1ccc(Cl)c(Cl)c1 [Example 6, (E)-4-Fluorostyryl-3,4-dichlorobenzylsulfone] |  |  | ++++ (50-60% = ++++) | ++++ (50-60% = ++++) | ++++ (50-60% = ++++) |
| N#Cc1ccc(CS(=O)(=O)/C=C/c2ccc(F)cc2)cc1 [Example 10, (E)-4-Fluorostyryl-4-cyanobenzylsulfone] |  | +++ (40-50% = +++) | ++ (10-15% = ++) |  | +++ (40-50% = +++) |
| N#Cc1ccc(CS(=O)(=O)/C=C/c2ccc(Cl)cc2)cc1 [Example 11, (E)-4-Chlorostyryl-4-cyanobenzylsulfone] |  | + (5-10%: = +) | + (5-10%: = +) |  | + (5-10%: = +) |
| N#Cc1ccc(CS(=O)(=O)/C=C/c2ccc(Br)cc2)cc1 [Example 12, (E)-4-Bromostyryl-4-cyanobenzylsulfone] | − (0% = −) | + (5-10%: = +) | − (0% = −) |  | − (0% = −) |
| O=S(=O)(/C=C/c1ccc(F)c(F)c1)Cc1ccc(Cl)cc1 [Example 13, (E)-3,4-Difluorostyryl-4-chlorobenzylsulfone] | − (0% = −) | − (0% = −) | − (0% = −) |  | − (0% = −) |
| O=S(=O)(/C=C/c1ccc(F)c(Cl)c1)Cc1ccc(Cl)cc1 [Example 14, (E)-3-Chloro-4-fluorostyryl-4-chlorobenzylsulfone] | − (0% = −) | − (0% = −) | − (0% = −) |  | − (0% = −) |
| O=S(=O)(/C=C/c1ccc(F)cc1Cl)Cc1ccc(Cl)cc1 [Example 15, (E)-2-Chloro-4-fluorostyryl-4-chlorobenzylsulfone] | +++++ (Above 80% = +++++) | +++++ (Above 80% = +++++) | +++++ (Above 80% = +++++) |  | +++++ (Above 80% = +++++) |
| O=S(=O)(/C=C/c1ccc(Cl)cc1Cl)Cc1ccc(Cl)cc1 [Example 16, (E)-2,4-Dichlorostyryl-4-chlorobenzylsulfone] | ++++ (50-60% = ++++) |  | +++ (40-50% = +++) |  | ++++ (50-60% = ++++) |
| O=S(=O)(/C=C/c1ccc(Cl)c(Cl)c1)Cc1ccc(Cl)cc1 [Example 17, (E)-3,4-Dichlorostyryl-4-chlorobenzylsulfone] | + (5-10%: = +) |  | + (5-10%: = +) |  | + (5-10%: = +) |
| O=S(=O)(/C=C/c1cccc(Cl)c1Cl)Cc1ccc(Cl)cc1 [Example 18, (E)-2,3-Dichlorostyryl-4-chlorobenzylsulfone] | + (5-10%: = +) |  | + (5-10%: = +) |  | + (5-10%: = +) |
| N#Cc1ccc(CS(=O)(=O)/C=C/c2cccc([N+](=O)[O-])c2)cc1 [Example 53, (E)-3-nitrostyryl-4-cyanobenzylsulfone] | + (5-10%: = +) | + (5-10%: = +) | + (5-10%: = +) | + (5-10%: = +) |  |
| N#Cc1ccc(CS(=O)(=O)/C=C/c2ccc([N+](=O)[O-])cc2)cc1 [Example 54, (E)-4-nitrostyryl-4-cyanobenzylsulfone] | ++++ (50-60% = ++++) | ++++ (50-60% = ++++) | ++++ (50-60% = ++++) | ++++ (50-60% = ++++) |  |
| Cc1ccc(CS(=O)(=O)/C=C/c2ccc(F)cc2)cc1 [Example 55, (E)-4-fluorostyryl-4-methylbenzylsulfone] | + (5-10%: = +) | + (5-10%: = +) | + (5-10%: = +) | + (5-10%: = +) |  |
| Cc1ccc(CS(=O)(=O)/C=C/c2ccc(Br)cc2)cc1 [Example 56, (E)-4-bromostyryl-4-methylbenzylsulfone] | + (5-10%: = +) | + (5-10%: = +) | + (5-10%: = +) | + (5-10%: = +) |  |
| Cc1ccc(CS(=O)(=O)/C=C/c2ccccc2[N+](=O)[O-])cc1 [Example 57, (E)-2-nitrostyryl-4-methylbenzylsulfone] | + (5-10%: = +) | + (5-10%: = +) | + (5-10%: = +) | + (5-10%: = +) |  |
| Cc1ccc(CS(=O)(=O)/C=C/c2cccc([N+](=O)[O-])c2)cc1 [Example 58, (E)-3-nitrostyryl-4-methylbenzylsulfone] | + (5-10%: = +) | + (5-10%: = +) | + (5-10%: = +) | + (5-10%: = +) |  |
| Cc1ccc(CS(=O)(=O)/C=C/c2ccc([N+](=O)[O-])cc2)cc1 [Example 59, (E)-4-nitrostyryl-4-methylbenzylsulfone] | + (5-10%: = +) | + (5-10%: = +) | + (5-10%: = +) | + (5-10%: = +) |  |
| COc1ccc(CS(=O)(=O)/C=C/c2ccc(F)cc2)cc1 [Example 60, (E)-4-fluorostyryl-4-methoxybenzylsulfone] | +++++ (Above 80% = +++++) | +++++ (Above 80% = +++++) | +++++ (Above 80% = +++++) | +++++ (Above 80% = +++++) |  |
| COc1ccc(CS(=O)(=O)/C=C/c2ccc(Cl)cc2)cc1 [Example 61, (E)-4-chlorostyryl-4-methoxybenzylsulfone] | ++++ (50-60% = ++++) | ++++ (50-60% = ++++) | ++++ (50-60% = ++++) | ++++ (50-60% = ++++) |  |
| COc1ccc(CS(=O)(=O)/C=C/c2ccc(Br)cc2)cc1 [Example 62, (E)-4-bromostyryl-4-methoxybenzylsulfone] | ++++ (50-60% = ++++) | ++++ (50-60% = ++++) | ++++ (50-60% = ++++) | ++++ (50-60% = ++++) |  |
| COc1ccc(CS(=O)(=O)/C=C/c2ccccc2[N+](=O)[O-])cc1 [Example 63, (E)-2-nitrostyryl-4-methoxybenzylsulfone] | + (5-10%: = +) | + (5-10%: = +) | + (5-10%: = +) | + (5-10%: = +) |  |
| COc1ccc(CS(=O)(=O)/C=C/c2cccc([N+](=O)[O-])c2)cc1 [Example 64, (E)-3-nitrostyryl-4-methoxybenzylsulfone] | + (5-10%: = +) | + (5-10%: = +) | + (5-10%: = +) | + (5-10%: = +) |  |
| COc1ccc(CS(=O)(=O)/C=C/c2ccc([N+](=O)[O-])cc2)cc1 [Example 65, (E)-4-nitrostyryl-4-methoxybenzylsulfone] | ++++ (50-60% = ++++) | ++++ (50-60% = ++++) | ++++ (50-60% = ++++) | ++++ (50-60% = ++++) |  |
| O=[N+]([O-])c1ccc(CS(=O)(=O)/C=C/c2ccc(Cl)cc2)cc1 [Example 66, (E)-4-chlorostyryl-4-nitrobenzylsulfone] | + (5-10%: = +) | + (5-10%: = +) | + (5-10%: = +) | + (5-10%: = +) |  |
| O=[N+]([O-])c1ccc(CS(=O)(=O)/C=C/c2ccc(F)cc2)cc1 [Example 67, (E)-4-fluorostyryl-4-nitrobenzylsulfone] | + (5-10%: = +) | + (5-10%: = +) | + (5-10%: = +) | + (5-10%: = +) |  |
| (E)-4-trifluoromethylstyryl-4-bromoyanobenzylsulfone [Example 51] | + (5-10%: = +) | + (5-10%: = +) | + (5-10%: = +) | + (5-10%: = +) |  |
